Assay results: a melting point compilation (Tetko et al.; mined from patent text by program, amines drawn as free bases though some values may be those of a salt)

With `CCCCCCCCCCCCCCCCOCC(COCCCCCCCCCCCCCCCC)NCCC#N` the melting point was 45 to 46 °C. Molecule `CS(=O)(=O)C(=C1CN(C(c2ccccc2)c2ccccc2)C1)c1cc(F)cc(F)c1` has a melting point of 172 °C. For `COc1cc(Cc2cnc(NC(=O)C(C)(C)C)nc2NC(=O)C(C)(C)C)c(C=O)c(OC)c1OC`, the melting point was 162 to 163 °C. In the case of `Cc1ccc2sc3cc(C(C)(C)[N+](=O)[O-])ccc3c(=O)c2c1`, the melting point is reported as 170 to 173 °C. `CC(=O)NC(NCC(=O)OCc1ccccc1)C(=O)NCc1ccccc1` (stereo not given) gave a melting point of 133 to 135 °C. For `Oc1ncn(-c2cccc(F)n2)n1`, the melting point was 290 °C. `CC1(C(=O)N2C[C@H](S(=O)(=O)c3ccc(OCC(F)(F)F)cc3C(F)(F)F)C[C@H]2C(=O)NC2(C#N)CC2)CC1` showed a melting point of 126 to 127 °C. Molecule `CCS(=O)(=O)N[C@H](C(=O)NCCc1ccc(OC/C=C\c2ccc(Cl)cc2)c(OC)c1)C(C)C` has a melting point of 141 to 143 °C. For `CCC(C)C(CN[C@@H](Cc1ccccc1)C(=O)OCc1ccccc1)NC(=O)OC(C)(C)C` (stereo not given in full), the melting point was 53 to 55 °C. In the case of `COC(=O)C1=C(C)NC(C)=C(NC(=O)Nc2ccccc2)C1c1ccccc1Cl` (stereo not given), the melting point is reported as 203 to 205 °C. For `Cn1c(CC(=O)O)ccc1C(=O)c1ccc([N+](=O)[O-])cc1`, the melting point was 192 to 195 °C. `Cc1cc(C(=O)NCCCCc2ccc(-c3ccc(=O)[nH]n3)cc2)on1` gave a melting point of 236 to 238 °C. `CCOC(=O)CNC(=O)[C@@H]1CS[C@H](c2ccccc2O)N1C(=O)CCSC(=O)c1ccccc1` gave a melting point of 134 to 135 °C. In the case of `CC(=O)OCCC1(C)CCc2c(C)c(OCc3ccccc3)c(C)c(C)c2O1` (stereo not given), the melting point is reported as 58 to 62 °C. `O=C(Nc1ccc(Cl)cc1)C1=C(C(=O)Nc2cc(OC3CCCC3)c(Cl)cc2F)CCCC1` gave a melting point of 221 to 222 °C. For `N=C(NO)c1ccc(N)nc1`, the melting point was 300 °C. `Cn1cc(-c2cc(-c3cnc4[nH]ccc4c3)ccn2)n(-c2cccc(C#N)c2)c1=O` showed a melting point of 265 °C. With `CN(c1cccc2cc(C3=NCC4(CCC5(CC4)OCCO5)S3)[nH]c12)S(=O)(=O)c1cccs1` the melting point was 224 to 225 °C. `COc1ccc(-c2cc(C(=O)O)sc2-c2ccc(F)cc2)cc1` showed a melting point of 204 to 206 °C. `CON=Cc1cc(-n2c(=O)cc(C(F)(F)F)[nH]c2=O)c(F)cc1Cl` showed a melting point of 176 to 177 °C. Molecule `CCCCc1cc(C(O)=S)cc(N)c1Cc1ccccc1` has a melting point of 136 to 138 °C. In the case of `N#Cc1cccc(-c2cc(-c3ccc(C#N)cc3[N+](=O)[O-])no2)c1`, the melting point is reported as 235 to 238 °C. `CCCCCN1CC[C@@H](c2ccc(Br)cc2)[C@H](CO)C1` (racemic) gave a melting point of 128 to 130 °C. For `c1cn(CCc2ccc3c(c2)Cc2c(-c4ccsc4)n[nH]c2-3)cn1`, the melting point was 160 to 165 °C. For `O=C(Cc1ccncc1)c1ccc(F)cc1`, the melting point was 90 to 91 °C. `C[C@@H](n1cnc2cc(N3CCN(c4ccc(Cl)cc4)CC3)c(F)cc2c1=O)[C@](O)(Cn1cncn1)c1ccc(F)cc1F` showed a melting point of 130 to 133 °C. In the case of `CCOC(=Nc1cccc(C(F)(F)F)c1)C(C)C`, the melting point is reported as 95 to 100 °C. With `CCOC(=O)CCCCc1oc(=O)[nH]c1-c1ccc(Cl)cc1` the melting point was 143 to 144 °C. `CC(C)(C(=O)c1ccc(SCCO)cc1)N1CCOCC1` showed a melting point of 62 to 64 °C. With `NC(C=C(CP(=O)(O)O)c1ccccc1)C(=O)O` (stereo not given) the melting point was 230 to 233 °C. `Oc1ccc2c(c1)C13CCN(CC4CCC4)C(C2)C1CCOC3` (stereo not given) showed a melting point of 197 to 198 °C. `CCCCCCCCCCCCCCc1ccc(C(=O)O)[nH]1` gave a melting point of 68 to 69 °C. Work on `CCN1CCN(c2nc(-c3ccc(OC)cc3)nc3sc(C#N)c(C)c23)CC1` yielded a melting point of 173 to 175 °C. In the case of `Cc1c(-c2cccs2)nn2cc[nH]c12`, the melting point is reported as 205 to 208 °C. Work on `CCn1c(=O)n(CC(C)(C)O)c(=O)c2[nH]cnc21` yielded a melting point of 217 to 219 °C. Work on `O=C1CC[C@H](N2C(=O)c3cccc(CNC(=O)C4CC4)c3C2=O)C(=O)N1` yielded a melting point of 219 to 221 °C. In the case of `N#CC(C(=O)Nc1cccc(C(F)(F)F)c1)C(=O)c1ccc[nH]1` (stereo not given), the melting point is reported as 210 to 212 °C. Work on `CN1C(=O)CN(c2cccc(O)c2)NC1=O` yielded a melting point of 95 to 96 °C. Molecule `CC(Cc1cc(C(C)(C)C)c(O)c(C(C)(C)C)c1)C(=O)Oc1ccc(C(=O)c2cc(C(C)(C)C)c(O)c(C(C)(C)C)c2)c(O)c1` (stereo not given) has a melting point of 163 to 165 °C. `O=C(O)CCC(=O)c1ccc(NC(=O)CCCl)cc1` gave a melting point of 181 to 182 °C. For `CCCCCCCCCCCCCCCC(O)=S`, the melting point was 64 to 66 °C. Work on `O=C(O)C(Cc1c[nH]cn1)N1C(=O)c2ccccc2C1=O` (stereo not given) yielded a melting point of 280 to 285 °C. With `N#CC1=C(C2CCCN2)Nc2n[nH]cc2C1c1cccc2nonc12` (stereo not given) the melting point was > 240 °C. With `O=C(Cc1ccc(-c2ccc(C(CC3CCOCC3)c3ccc(S(=O)(=O)C4CC4)cc3)[nH]2)nc1)N1CCOCC1` (stereo not given) the melting point was 202 to 203 °C. Molecule `CCOC(=O)[C@H](CSCc1ccccc1)NC(=O)C(C)(C)NC(=O)[C@@H](S)C(C)C` has a melting point of 87 to 91 °C. With `COC(=O)[C@H](O)[C@@H](NC(=O)c1ccccc1)c1ccccc1` the melting point was 184 to 185 °C. `FC(F)c1nc2ccccc2n1-c1nc(Nc2cnc3ccccc3c2)nc(N2CCOCC2)n1` showed a melting point of 270 to 273 °C. For `O=C(O)c1cc(Br)c2ccccn2c1=O`, the melting point was > 250 °C. With `COC1=CC(=O)c2c(c(CO)cn2C)C1=O` the melting point was 182 to 184 °C. For `CCOc1ccc(C(=O)N(CC)CC)c(OCC)c1`, the melting point was 45 to 56 °C. `CC1=CC(=O)C(C)=C(CCC(C)(C)COc2ccc(CC3SC(=O)NC3=O)cc2)C1=O` (stereo not given) gave a melting point of 173 °C. In the case of `Oc1ccc2c(c1)OCC(c1cccc(C(F)(F)F)c1)C2c1ccc(OCCN2CCCCC2)cc1` (stereo not given), the melting point is reported as 118 to 119 °C. With `CN1c2ccccc2CC(=O)c2ccccc21` the melting point was 92 to 93 °C. With `COc1ccc(-c2cccs2)cc1OC1CCCC1` the melting point was 67 to 68 °C. With `O=[N+]([O-])c1cn2c(n1)OC(COc1ccc(N3CCN(NCc4ccc(-c5ccc(C(F)(F)F)cc5)cc4)CC3)cc1)CC2` (stereo not given) the melting point was 294 to 295 °C. `CC(=O)NCc1ccc(CN2CCN(c3ccccc3)CC2)cc1` gave a melting point of 135 to 136 °C. In the case of `CCc1nn(C2CCCC2)c2c1CCNC2=O`, the melting point is reported as 152 to 153 °C. Work on `CN(C)c1c(C#N)c(N)nn1C` yielded a melting point of 100 to 102 °C. With `CCC(OC(C)=O)c1ccc(Cl)c2nc3n(c12)CCCN3c1ncc(Cl)cc1Cl` (stereo not given) the melting point was 157 to 159 °C. Molecule `Cc1nc(C(C)c2ccccc2)c2c(c1O)COC2` (stereo not given) has a melting point of 163 °C. In the case of `Cc1ccc2c(c1)C(C(=O)O)c1cc(Br)ccc1CO2` (stereo not given), the melting point is reported as 168 to 170 °C. In the case of `CC(NC(=O)NCCCCC1CCSS1)C(=O)NS(N)(=O)=O` (stereo not given), the melting point is reported as 156 to 157 °C. In the case of `NCCCNc1cccc2[nH]ncc12`, the melting point is reported as 154 to 163 °C. Work on `Cc1csc2c1c(=O)oc(=O)n2Cc1ccccc1` yielded a melting point of 183 °C. Work on `COCCn1cc(-c2ccccc2)n(C(=O)c2ccccc2)c1=O` yielded a melting point of 112 to 117 °C. `COc1ccc(CCN2CCC(Nc3nc4cncnc4n3Cc3ccccn3)CC2)cc1` gave a melting point of 144 °C. `Clc1nc(N2CC3CCC(CC3)C2)nc(N2CC3CCC(CC3)C2)n1` gave a melting point of 195 to 200 °C. `COc1ccc(C(=O)C2=C(c3ccc(OC)cc3)CCc3cc(OC)ccc32)cc1` showed a melting point of 172 to 173 °C. `CN1CCN(c2ccc3c(c2)NC(=O)C(C)(c2ccc(N)cc2)C3=O)CC1` (stereo not given) gave a melting point of 265 to 267 °C. With `CCCSc1sc(C(=O)OCC)c2c1-c1nc(-c3ccccc3)sc1CC2` the melting point was 125 to 126 °C. `Oc1cc(Br)c2oc(-c3ccc(O)c(F)c3F)nc2c1` gave a melting point of 258 to 260 °C. In the case of `N[C@@H](CC(C(=O)O)=C1CCCC1)C(=O)O`, the melting point is reported as 205 °C. In the case of `COc1ccnc(CCc2nc3cc(-c4ccc(S(=O)(=O)N5CCN(c6ccc(C)cc6C)CC5)cc4)cnc3[nH]2)c1`, the melting point is reported as 208 to 209 °C. `COc1ccc(N2CCN(c3c(C)c(C)c4c(c3C)C(CO)C(C)(C)O4)CC2)cc1` (stereo not given) showed a melting point of 140 to 141 °C. Work on `COc1ccc(S(=O)(=O)Nc2cccnc2Nc2ccc(OC(=O)N(C)C)cc2)cc1` yielded a melting point of 202 to 203 °C. With `COCc1cn2c(C)c(C)nc2c(O)c1CCC(=O)c1ccccc1` the melting point was 167 to 168 °C. `N[C@H](CCC(=O)N1[C@H](C(=O)O)C[C@@H]2CCCC[C@@H]21)C(=O)O` gave a melting point of 191 to 192 °C. `COC(=O)Nc1nc(C)cc(OC)n1` gave a melting point of 89 to 92.5 °C. `NNC(=O)c1ccc2[nH]nnc2c1` showed a melting point of 295 to 296 °C. Work on `O=C(O)Cc1ccc2oc(-c3ccc(Cl)cc3)nc2c1` yielded a melting point of 241 to 242 °C. With `COc1cc2c3c(nc4ccc(Cl)cc4c3c1)-c1ccc(Cl)cc1N2C` the melting point was 287 to 289 °C. For `CCOC(=O)c1cn(C2CC2)c2nc(Cl)c(F)c(C)c2c1=O`, the melting point was 170 to 171 °C. Molecule `COC(=O)c1ccc(OCC2CC(=O)N(c3ccc(C)cc3)C2)cc1` (stereo not given) has a melting point of 110 to 112 °C. `Cc1nsc2ccc([N+](=O)[O-])cc12` gave a melting point of 124 to 125 °C. `CC1(C)Oc2ccc(OC(F)(F)F)cc2[C@@H](N2Cc3ccccc3C2=O)[C@@H]1O` (relative stereo) gave a melting point of 212 to 213 °C. With `CCS(=O)(=O)c1ccc2c(c1)nc(CC(C)(C)C)n2CC1(O)CCCC1` the melting point was 172 °C. `CC(=O)COc1ccc(Cc2ccccc2)cc1` gave a melting point of 51 to 52 °C. `CCOC(=O)Cn1c(-c2ccc(OC)c(OC)c2)cc(=Nc2c(C)cc(C)cc2C)n(C)c1=O` gave a melting point of 112 to 113 °C. Work on `COC(=O)c1cc(OCc2cc(SC)cc(SC)c2)cc(OCc2cc(SC)cc(SC)c2)c1` yielded a melting point of 121 to 122 °C. In the case of `Fc1cc(CC2(Cc3ccnc(F)c3)c3ccccc3-c3nc(-c4ccccc4)ncc32)ccn1`, the melting point is reported as 213 to 215 °C. Molecule `C=CC(C)(C)C(O)(COc1ccc(-c2ccccc2)cc1)Cn1cnnc1` (stereo not given) has a melting point of 171 to 173 °C. With `COc1cc(C(=O)NCc2ccc3c(c2)C(=C2CCN(C)CC2)c2ccccc2C=C3)cc(OC)c1OC` the melting point was 200 to 202 °C. In the case of `N#Cc1cc(N)c(F)c(-c2ccc(Cl)cc2)n1`, the melting point is reported as 185 to 188 °C. `Cc1ccc(-c2ccc(C(=O)Nc3ccc4cc(CN5CCCC5)cnc4c3)cn2)cc1` gave a melting point of 226 to 228 °C. With `CN1C(C(=O)Nc2ccccn2)=C(OC(=O)C=Cc2ccccc2)c2ccccc2S1(=O)=O` the melting point was 156 to 158 °C. With `CCOC(=O)c1cnc2c(c1O)CCCCCCCCCC2` the melting point was 182 to 190 °C. With `CS(=O)(=O)c1ccc(-c2cnn(-c3cccc(F)c3)c(=O)c2-c2ccc(F)cc2)cc1` the melting point was 245 to 247 °C. Molecule `CCOC(=O)C1=C(N)NC(N)=C(C(=O)OCC)C1c1ccccc1-c1ccccc1` has a melting point of 215 °C. For `CCCCOc1ccc(/C=C/c2nc3c([nH]2)c(=O)n(CCC)c(=O)n3CCC)cc1`, the melting point was 237 to 239 °C. For `CCCC(=O)c1cc(O)c(O)c([N+](=O)[O-])c1`, the melting point was 88 to 90 °C.
